± gives the expanded uncertainty stated by the source.
Legend:
[1] = Molar enthalpy of transition or fusion; details: Crystal; DSC
[2] = Crystal; DSC

Molar enthalpy of transition or fusion [1]: 19.4 ± 0.88 kJ/mol
Triple point temperature [2]: 465.45 ± 0.81 K
SMILES: CC#C[C@]1(O)CC[C@H]2[C@@H]3CCC4=CC(=O)CCC4=C3[C@@H](c3ccc(N(C)C)cc3)C[C@@]21C [mifepristone]

From the NIST ThermoML archive (doi:10.1021/acs.jced.8b01062)
